Results taken from patent US6737383B1, “Herbicidal oxadiazolidines” (priority 1999, dated 2004).

Key:
rice = experiment: Test B flood test rice; type: in vivo, Oryza sativa
Procedure, shortened: (§1)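 Flood test on plants grown to the 2-leaf stage; treated plants kept in greenhouse twelve to sixteen days, then visually rated against controls on a 0 (no effect) to 10 (complete control) scale.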

surinam grass = experiment: Test B pre/postemergence surinam grass; type: in vivo, Brachiaria decumbens
Procedure, shortened: (§2)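 Herbicidal effect was estimated by eye on a ten-point control scale after plants spent twelve to sixteen days in a greenhouse following soil or foliar treatment. Foliar sprays targeted plants at one to four leaves; all doses were formulated in a non-phytotoxic solvent with surfactant.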

sugar beet = experiment: Test B pre/postemergence sugar beet; type: in vivo, Beta vulgaris
Procedure, shortened: as §2

cocklebur = experiment: Test B pre/postemergence cocklebur; type: in vivo, Xanthium strumarium
Procedure, shortened: as §2

crabgrass = experiment: Test B pre/postemergence crabgrass; type: in vivo, Digitaria sanguinalis
Procedure, shortened: as §2

giant foxtail = experiment: Test B pre/postemergence giant foxtail; type: in vivo, Setaria faberii
Procedure, shortened: as §2

bamyardgrass = experiment: Test B flood test barnyardgrass; type: in vivo, Echinochloa crus-galli
Procedure, shortened: as §1

wild oat = experiment: Test B pre/postemergence wild oat; type: in vivo, Avena fatua
Procedure, shortened: as §2

velvetleaf = experiment: Test B pre/postemergence velvetleaf; type: in vivo, Abutilon theophrasti
Procedure, shortened: as §2

purple nutsedge = experiment: Test B pre/postemergence purple nutsedge; type: in vivo, Cyperus rotundus
Procedure, shortened: as §2

smallflower flatsedge = experiment: Test B flood test smallflower flatsedge; type: in vivo, Cyperus difformis
Procedure, shortened: as §1

pigweed = experiment: Test B pre/postemergence pigweed; type: in vivo, Amaranthus retroflexus
Procedure, shortened: as §2

blackgrass = experiment: Test B pre/postemergence blackgrass; type: in vivo, Alopecurus myosuroides
Procedure, shortened: as §2

bedstraw = experiment: Test B pre/postemergence bedstraw; type: in vivo, Galium aparine
Procedure, shortened: as §2

soybean = experiment: Test B pre/postemergence soybean; type: in vivo, Glycine max
Procedure, shortened: as §2

corn = experiment: Test B pre/postemergence corn; type: in vivo, Zea mays
Procedure, shortened: as §2

[1] = Postemergence (flood test species), Rate 125 g/ha, scale of 0 to 10 where 0 is no effect and 10 is complete control
[2] = Rate 62 g/ha, Postemergence section, flood test species, scale of 0 to 10 where 0 is no effect and 10 is complete control
[3] = Rate 250 g/ha, Postemergence (flood test), scale 0 to 10, 0 is no effect, 10 is complete control
[4] = Rate 500 g/ha, listed under Postemergence (flood test species), scale 0 to 10
[5] = Postemergence, Rate 125 g/ha, scale of 0 to 10 where 0 is no effect and 10 is complete control
[6] = Preemergence, Rate 62 g/ha, scale 0 to 10 (0 no effect, 10 complete control)
[7] = Preemergence, Rate 125 g/ha, 0 is no effect, 10 is complete control
[8] = Preemergence, Rate 250 g/ha, scale 0 to 10, 0 is no effect, 10 is complete control
[9] = Preemergence, Rate 500 g/ha, scale 0 to 10 (0 no effect, 10 complete control)
[10] = Rate 62 g/ha, Postemergence, scale of 0 to 10 where 0 is no effect and 10 is complete control
[11] = Rate 250 g/ha, Postemergence, scale 0 to 10, 0 is no effect, 10 is complete control
[12] = Rate 500 g/ha, Postemergence, scale 0 to 10

CC(C)N(C(=O)n1oc(=O)n(Cc2ccccc2Cl)c1=O)c1ccc(F)cc1 [Compound 140]
1: B. signalgrass plant response rating (surinam grass; Rate 500 g/ha, Postemergence, scale of 0 to 10 where 0 is no effect and 10 is complete control) | Sugarbeets plant response rating (sugar beet; [9]) | Crabgrass plant response rating (crabgrass; [5]) | Giant foxtail plant response rating (giant foxtail; [5]) | Giant foxtail plant response rating (giant foxtail; [6]) | Wild oats plant response rating (wild oat; [8]) | Wild oats plant response rating (wild oat; [9]) | Wild oats plant response rating (wild oat; [12]) | Redroot pigweed plant response rating (pigweed; [5]) | Soybean plant response rating (soybean; [9])
3: Plant response rating, Cocklebur (cocklebur; [11]) | Redroot pigweed plant response rating (pigweed; [12]) | Blackgrass plant response rating (blackgrass; [5]) | Blackgrass plant response rating (blackgrass; [10]) | Soybean plant response rating (soybean; [5]) | Soybean plant response rating (soybean; [10]) | Plant response rating, Soybean (soybean; [11])
6: Crabgrass plant response rating (0 to 10 scale) (crabgrass; [7]) | Giant foxtail plant response rating (giant foxtail; [12]) | Blackgrass plant response rating (blackgrass; [12]) | Bedstraw plant response rating (bedstraw; Rate 500 g/ha, Postemergence, scale 0 to 10, 0 no effect, 10 complete control)
5: Crabgrass plant response rating (crabgrass; [8]) | Bedstraw plant response rating (bedstraw; [5]) | Plant response rating, Bedstraw (bedstraw; [11]) | Soybean plant response rating (soybean; [12])
8: Giant foxtail plant response rating (0 to 10 scale) (giant foxtail; [7]) | Barnyardgrass plant response rating (bamyardgrass; Rate 500 g/ha, listed under Postemergence (flood test species), scale 0 to 10, 0 no effect, 10 complete control)
10: Crabgrass plant response rating (crabgrass; [9]) | Giant foxtail plant response rating (giant foxtail; [9])
4: Rice plant response rating (rice; [4]) | Cocklebur plant response rating (cocklebur; [12]) | Crabgrass plant response rating (crabgrass; [6]) | Plant response rating, Giant foxtail (giant foxtail; [11]) | Blackgrass plant response rating (blackgrass; [8]) | Blackgrass plant response rating (blackgrass; [9]) | Plant response rating, Blackgrass (blackgrass; [11]) | Bedstraw plant response rating (bedstraw; [10])
9: Plant response rating, Crabgrass (crabgrass; [11]) | Crabgrass plant response rating (crabgrass; [12])
2: Plant response rating, Rice (rice; [3]) | B. signalgrass plant response rating (surinam grass; [9]) | Plant response rating, Barnyardgrass (bamyardgrass; [3]) | Velvetleaf plant response rating (velvetleaf; [12]) | Plant response rating, Redroot pigweed (pigweed; [11])
0: Rice plant response rating (rice; [1]) | Rice plant response rating (rice; [2]) | B. signalgrass plant response rating (surinam grass; [5]) | B. signalgrass plant response rating (surinam grass; [6]) | B. signalgrass plant response rating (0 to 10 scale) (surinam grass; [7]) | B. signalgrass plant response rating (surinam grass; [8]) | B. signalgrass plant response rating (surinam grass; [10]) | Plant response rating, B. signalgrass (surinam grass; [11]) | Sugarbeets plant response rating (sugar beet; [5]) | Sugarbeets plant response rating (sugar beet; [6]) | Sugarbeets plant response rating (0 to 10 scale) (sugar beet; [7]) | Sugarbeets plant response rating (sugar beet; [8]) | Sugarbeets plant response rating (sugar beet; [10]) | Plant response rating, Sugarbeets (sugar beet; [11]) | Sugarbeets plant response rating (sugar beet; [12]) | Cocklebur plant response rating (cocklebur; [5]) | Cocklebur plant response rating (cocklebur; [6]) | Cocklebur plant response rating (0 to 10 scale) (cocklebur; [7]) | Cocklebur plant response rating (cocklebur; [8]) | Cocklebur plant response rating (cocklebur; [9]) | Cocklebur plant response rating (cocklebur; [10]) | Crabgrass plant response rating (crabgrass; [10]) | Giant foxtail plant response rating (giant foxtail; [10]) | Barnyardgrass plant response rating (bamyardgrass; [1]) | Barnyardgrass plant response rating (bamyardgrass; [2]) | Wild oats plant response rating (wild oat; [5]) | Wild oats plant response rating (wild oat; [6]) | Wild oats plant response rating (0 to 10 scale) (wild oat; [7]) | Wild oats plant response rating (wild oat; [10]) | Plant response rating, Wild oats (wild oat; [11]) | Velvetleaf plant response rating (velvetleaf; [5]) | Velvetleaf plant response rating (velvetleaf; [6]) | Velvetleaf plant response rating (0 to 10 scale) (velvetleaf; [7]) | Velvetleaf plant response rating (velvetleaf; [8]) | Velvetleaf plant response rating (velvetleaf; [9]) | Velvetleaf plant response rating (velvetleaf; [10]) | Plant response rating, Velvetleaf (velvetleaf; [11]) | Nutsedge plant response rating (purple nutsedge; [5]) | Nutsedge plant response rating (purple nutsedge; [6]) | Nutsedge plant response rating (0 to 10 scale) (purple nutsedge; [7]) | Nutsedge plant response rating (purple nutsedge; [8]) | Nutsedge plant response rating (purple nutsedge; [9]) | Nutsedge plant response rating (purple nutsedge; [10]) | Plant response rating, Nutsedge (purple nutsedge; [11]) | Nutsedge plant response rating (purple nutsedge; [12]) | S. Flatsedge plant response rating (smallflower flatsedge; [1]) | S. Flatsedge plant response rating (smallflower flatsedge; [2]) | Plant response rating, S. Flatsedge (smallflower flatsedge; [3]) | S. Flatsedge plant response rating (smallflower flatsedge; [4]) | Redroot pigweed plant response rating (pigweed; [6]) | Redroot pigweed plant response rating (0 to 10 scale) (pigweed; [7]) | Redroot pigweed plant response rating (pigweed; [8]) | Redroot pigweed plant response rating (pigweed; [9]) | Redroot pigweed plant response rating (pigweed; [10]) | Blackgrass plant response rating (blackgrass; [6]) | Blackgrass plant response rating (0 to 10 scale) (blackgrass; [7]) | Bedstraw plant response rating (bedstraw; [6]) | Bedstraw plant response rating (0 to 10 scale) (bedstraw; [7]) | Bedstraw plant response rating (bedstraw; [8]) | Bedstraw plant response rating (bedstraw; [9]) | Soybean plant response rating (soybean; [6]) | Soybean plant response rating (0 to 10 scale) (soybean; [7]) | Soybean plant response rating (soybean; [8]) | Corn plant response rating (corn; [5]) | Corn plant response rating (corn; [6]) | Corn plant response rating (0 to 10 scale) (corn; [7]) | Corn plant response rating (corn; [8]) | Corn plant response rating (corn; [9]) | Corn plant response rating (corn; [10]) | Plant response rating, Corn (corn; [11]) | Corn plant response rating (corn; [12])
